Assay results reported in patent US8198317B2, “Methylenedioxy phenolic compounds and their use to treat disease” (The Ohio State University Research Foundation, priority 2008, dated 2012).

Assays:
Assay type in all cases: in vivo, human
Cardiovascular Patient = test: Treatment of a cardiovascular patient with chest pain (Examples 8-10); details: 1.0 to 100 mg/kg
Procedure: A person presents with uncomfortable pressure, squeezing and pain in the center of their chest as well as in shoulders, arms, neck, jaw and back. […] After being evaluated with an angiography, they are diagnosed as suffering from atherosclerosis with plaque formation in the coronary arteries. The patient is administered a composition comprising an effective amount of 3,4-methylenedioxy-6-nitrophenyl acetate (INV 75) (1.0 to 100-mg/kg). Alternate therapies include, 3,4-methylenedioxy phenyl acetate (INV 73); 3,4-methylenedioxy-6-nitrophenol (INV 74; 3,4-Methylenedioxy 6-nitro phenyl lipoate (INV-7465) or 3,4-Methylenedioxy phenyl lipoate (INV-7065). The composition is optionally administered in conjunction with therapy such as administration of aspirin, a drug to reduce the tendency of platelet aggregation, such as clopidogrel bisulfate, a statin, an angiotensin converting enzyme inhibitor, and/or heparin or a combination thereof, using dosages known to one of ordinary skill in the art. Patient reports improvement in the chest pain, shortness of breath. They are again evaluated with an angiography to measure reduced plaque in their arteries.
A person presents with uncomfortable pressure, squeezing and pain in the center of their chest for less than 30 minutes. They are taken to the cardiac angiography suite for suspected unstable angina. […] After being evaluated with an angiography, they are diagnosed as suffering from atherosclerosis with plaque formation in the coronary arteries. The patient is administered a composition comprising an effective amount of 3,4-Methylenedioxy phenyl lipoate (INV-7065) (1.0 to 100 mg/kg). […] They are again evaluated with an angiography to measure reduced plaque in their arteries.
A person presents with uncomfortable pressure, squeezing and pain in the center of their chest for less than 30 minutes. […] After being evaluated with an angiography, they are diagnosed as suffering from atherosclerosis with plaque formation in the coronary arteries. […] They are again evaluated with an angiography to measure reduced plaque in their arteries.

Humans [1] = test: Treatment of established atherosclerosis in humans (Example 21); details: oral, in excess of 12 months
Description: Individuals with established atherosclerosis with evidence of plaque in the coronary arteries, carotid arteries or peripheral arteries are known to be at risk for future cardiovascular events such as heart attacks and strokes. These individuals are on treatments such as statins and anti-hypertensive agents such as ACE inhibitors, diuretics or calcium channel blockers. They also will receive an acceptable dose of a composition comprising a compound of the present invention in an acceptable carrier orally and chronically for durations in excess of 12 months. In one study, 3,4-methylenedioxy phenyl acetate (INV 73); 3,4-methylenedioxy-6-nitrophenol (INV 74); 3,4-methylenedioxy-6-nitrophenyl acetate (INV 75); 3,4-Methylenedioxy 6-nitro phenyl lipoate (INV-7465) or 3,4-Methylenedioxy phenyl lipoate (INV-7065) are administered to these individuals. A repeat IVUS measurement is made at the end of the treatment period to assess the effect of the infusion of the composition on coronary atherosclerosis in the target vessel.

Humans [2] = test: Treatment of atherosclerosis in humans, primary prevention (Example 22); details: oral, in excess of 12 months
Description: Individuals with risk factors for atherosclerosis such as family history, hypertension and high cholesterol are known to be at risk for future cardiovascular events such as heart attacks and strokes. These individuals are on primary prevention treatments such as hypolipidemic drug therapy such as statins aspirin and anti-hypertensive agents such as ACE inhibitors, diuretics or calcium channel blockers. They also will receive an acceptable dose of a composition comprising a compound of the present invention in an acceptable carrier orally chronically for durations in excess of 12 months. In one study, 3,4-methylenedioxy phenyl acetate (INV 73); 3,4-methylenedioxy-6-nitrophenol (INV 74); 3,4-methylenedioxy-6-nitrophenyl acetate (INV 75); 3,4-Methylenedioxy 6-nitro phenyl lipoate (INV-7465) or 3,4-Methylenedioxy phenyl lipoate (INV-7065) are administered to these individuals. A repeat IVUS measurement is made at the end of the treatment period to assess the effect of the infusion of the composition on coronary atherosclerosis in the target vessel.

Patients = test: Treatment of patients with Type I and Type II diabetes (Example 24); details: diabetic patients, oral, 12 months
Description: Individuals with Type I and Type II diabetes are at risk for future cardiovascular events such as heart attacks, strokes and kidney disease. These individuals are on prevention treatments such as hypolipidemic drug therapy such as statins and anti-hypertensive agents such as ACE inhibitors. They are already receiving glycemia lowering strategies such as Insulin, PPARγ agents, Metformin or sulfonylurea therapy. They also will receive an acceptable dose of a composition comprising a compound of the present invention in an acceptable carrier orally chronically for durations in excess of 12 months. In one study, 3,4-Methylenedioxy 6-nitro phenyl lipoate (INV-7465) or 3,4-Methylenedioxy phenyl lipoate (INV-7065) are administered to these individuals. The patients undergo the following measurements: HbA1C to assess glycemic control, urinary microalbuminura, blood pressure and lipid measurements. At the end of 12 months of treatment, there is lowering of HbA1C and urinary microalbuminuria. There is an improvement in VLDL cholesterol and a decrease in triglycerides with any of these treatments [(3,4-methylenedioxy phenyl acetate (INV 73); 3,4-methylenedioxy-6-nitrophenol (INV 74); 3,4-methylenedioxy-6-nitrophenyl acetate (INV 75); 3,4-Methylenedioxy 6-nitro phenyl lipoate (INV-7465) or 3,4-Methylenedioxy phenyl lipoate (INV-7065)].

| Compound | chest pain, shortness of breath (Cardiovascular Patient) | plaque in the atherosclerotic coronary artery (IVUS) (Humans [1]) | plaque in the atherosclerotic coronary artery (IVUS) (Humans [2]) | VLDL cholesterol (Patients) | triglycerides (Patients) | HbA1C (Patients) | urinary microalbuminuria (Patients) |
| --- | --- | --- | --- | --- | --- | --- | --- |
| CC(=O)Oc1cc2c(cc1[N+](=O)[O-])OCO2 [INV-75, 3,4-methylenedioxy-6-nitrophenyl acetate] | improvement | reduced | reduced | improvement | decrease |  |  |
| O=C(CCCCC1CCSS1)Oc1ccc2c(c1)OCO2 (stereo not shown) [INV-7065, 3,4-Methylenedioxy phenyl lipoate] | improvement | reduced | reduced | improvement | decrease | lowering | lowering |
| O=C(CCCCC1CCSS1)Oc1cc2c(cc1[N+](=O)[O-])OCO2 (stereo not shown) [INV-7465, 3,4-Methylenedioxy 6-nitro phenyl lipoate] | improvement | reduced | reduced | improvement | decrease | lowering | lowering |
